Legend:
erythropoietin (EPO) [1] = assay: EPO expression in Hep3B cells (QUANTIKINE immunoassay of conditioned media); type: cell-based, Human; conditions: for Fold Increase Over Control: EPO, vs 1% DMSO control; for EPO: conditioned media after overnight incubation with compound
Procedure: The effect of compounds of the present invention on expression of cytoprotective and neuroprotective factors in cells was evaluated as follows. Human cells derived from hepatocarcinoma (Hep3B) tissue (see, e.g., American Type Culture Collection, Manassas Va.) were seeded into 35 mm culture dishes and grown at 37° C., 20% O2, 5% CO2 in Minimal Essential Medium (MEM), Earle's balanced salt solution (Mediatech Inc., Herndon Va.), 2 mM L-glutamine, 0.1 mM non-essential amino acids, 1 mM sodium pyruvate, and 10% FBS. When cell layers reached confluence, the media was replaced with OPTI-MEM media (Invitrogen Life Technologies, Carlsbad Calif.) and cell layers were incubated for approximately 24 hours in 20% O2, 5% CO2 at 37° C. Various compounds of the present invention or 1% DMSO (negative control) were then added to existing media and incubation was continued overnight.
Following incubation, the conditioned media was collected from cell cultures and analyzed for erythropoietin (EPO) expression using a QUANTIKINE immunoassay (R&D Systems, Inc., Minneapolis Minn.) according to the manufacturer's instructions.

[2] = test system: vascular endothelial growth factor (VEGF); assay: VEGF expression in Kelly neuroblastoma cells; type: cell-based; conditions: for VEGF: conditioned media after overnight incubation
Procedure: (§1) The effect of compounds of the present invention on expression of cytoprotective and neuroprotective factors in neuroblastoma cells was evaluated as follows. Kelly neuroblastoma cells (see, e.g., DSMZ, cat# ACC-355, Braunschweig Germany) were treated with various compounds of the present invention or 1% DMSO (negative control). Following an overnight incubation, the conditioned media was collected from cell cultures and analyzed for erythropoietin (EPO) and vascular endothelial growth factor (VEGF) expression using a QUANTIKINE immunoassay (R&D Systems, Inc., Minneapolis Minn.) according to the manufacturer's instructions.

erythropoietin = assay: Plasma EPO in mice after intravenous injection; type: in vivo, Swiss Webster mice; conditions: mouse plasma, 20 mg/kg i.v., four hours after injection; for fold induction at 20 mg/kg: iv, 4 h, read-out: EPO Fold Increase; for EPO: mouse EPO ELISA kit (**)
Procedure: (§2) The effect of compounds of the present invention on expression of cytoprotective and neuroprotective factors in vivo was evaluated as follows. In one series of experiments, male Swiss Webster mice (29-34 g) were administered various compounds of the present invention via intravenous injection into the caudal tail vein. Animals treated by intravenous injection received a 6 ml/kg volume of either 5% Dextrose with an equimolar amount of NaOH or Meglumine (vehicle control) or 20 mg/kg of a compound of the present invention in 5% dextrose with an equimolar amount of NaOH or Meglumine. Four hours after injection, the animals were anesthetized and exsanguinated. Plasma samples were collected in EDTA and heparin coated microtainer tubes. Plasma samples were assayed for erythropoietin and VEGF using commercially-available ELISA kits purchased from R & D Systems (Minneapolis Minn.).

erythropoietin (EPO) [3] = assay: EPO expression in Kelly neuroblastoma cells; type: cell-based; conditions: for EPO: conditioned media after overnight incubation
Procedure: as §1

VEGF = assay: Plasma VEGF in mice after intravenous injection; type: in vivo, Swiss Webster mice; conditions: mouse plasma, 20 mg/kg i.v., four hours after injection; for fold induction at 20 mg/kg: iv, 4 h, read-out: VEGF Fold Increase
Procedure: as §2

| SMILES | Fold Increase Over Control (erythropoietin (EPO) [1]) | EPO (erythropoietin (EPO) [1]) [mIU/ml] | VEGF Fold Increase [2] | VEGF [2] [pg/mL] | fold induction at 20 mg/kg (erythropoietin) | EPO (erythropoietin) [pg/mL] | EPO Fold Increase (erythropoietin (EPO) [3]) | EPO (erythropoietin (EPO) [3]) [mIU/ml] | fold induction at 20 mg/kg (VEGF) | VEGF (VEGF) [pg/mL] |
| --- | --- | --- | --- | --- | --- | --- | --- | --- | --- | --- |
| O=C(O)CNC(=O)c1ncc2cc(Oc3ccccc3)sc2c1O [Compound AG, [(7-Hydroxy-2-phenoxy-thieno[3,2-c]pyridine-6-carbonyl)-amino]-acetic acid] | 8.5 | 27.3 | 5.9 | 8670 | 1.91 | 303 | 14.44 | 273 | 1.76 | 51 |
| COc1ccc(Oc2ccc3c(Cl)nc(C(=O)NCC(=O)O)c(O)c3c2)cc1 [Compound H, {[1-Chloro-4-hydroxy-6-(4-methoxy-phenoxy)-isoquinoline-3-carbonyl]-amino}-acetic acid] | 5.4 | 84.0 |  |  |  |  |  |  |  |  |
| O=C(O)CNC(=O)c1nc2cc(Cl)ccc2c(I)c1O [Compound T, [(7-Chloro-3-hydroxy-4-iodo-quinoline-2-carbonyl)-amino]acetic acid] | 49.3 | 100.7 | 5.6 | 8159 | 4.65 | 498 | 15.83 | 299.1 | 1.24 | 31 |
| O=C(O)CNC(=O)c1nc(Cl)c2ccccc2c1O [Compound A, [(1-Chloro-4-hydroxy-isoquinoline-3-carbonyl)-amino]-acetic acid] | 13.6 | 18.3 |  |  |  |  |  |  |  |  |
| N#Cc1nc(C(=O)NCC(=O)O)c(O)c2ccc(Cl)cc12 [Compound S, [(7-Chloro-1-cyano-4-hydroxy-isoquinoline-3-carbonyl)-amino]-acetic acid] | 10.1 | 12.5 | 1.9 | 725 | 40.8 | 460.6 | 2.89 | 40.4 | 0.68 | 15 |
| O=C(O)CNC(=O)c1nc2ccc(Oc3ccccc3)cc2cc1O [Compound C, [(3-Hydroxy-6-phenoxy-quinoline-2-carbonyl)-amino]-acetic acid] | 2.2 | 241.4 | 9.1 | 1445.7 |  |  | 3.5 | 21.8 |  |  |
| N#Cc1nc(C(=O)NCC(=O)O)c(O)c2ccc(Cc3ccccc3)cc12 [Compound AR, [(7-Benzyl-1-cyano-4-hydroxy-isoquinoline-3-carbonyl)-amino]-acetic acid] | 21.8 | 82.7 | 10.8 | 14745 | 22.8 | 11000 | 32.17 | 842.9 | 0.83 | 29 |
| Cc1nc2ccc(Oc3ccc4c(C#N)nc(C(=O)NCC(=O)O)c(O)c4c3)cc2o1 [Compound AQ, {[1-Cyano-4-hydroxy-6-(2-methyl-benzooxazol-6-yloxy)-isoquinoline-3-carbonyl]-amino}-acetic acid] | 16.5 | 32.9 | 2.6 | 3795 | 23.8 | 11464 | 4.34 | 82 | 1.69 | 59 |
| COc1cccc(Oc2cccc3c(O)c(C(=O)NCC(=O)O)nc(C#N)c23)c1 [Compound AP, {[1-Cyano-4-hydroxy-8-(3-methoxy-phenoxy)-isoquinoline-3-carbonyl]-amino}-acetic acid] | 17.2 | 53.4 | 2.2 | 3266 | 20.1 | 3595 | 1.44 | 27.2 | 0.43 | 27 |
| Cc1nc(C(=O)NCC(=O)O)c(OCc2ccccc2)c2ccc(Oc3ccccc3)cc12 [Compound K, [(4-Benzyloxy-1-methyl-7-phenoxy-isoquinoline-3-carbonyl)-amino]-acetic acid] | 1.8 | 57.4 |  |  |  |  |  |  |  |  |
| N#Cc1nc(C(=O)NCC(=O)O)c(O)c2cccc(Oc3ccccc3)c12 [Compound W, [(1-Cyano-4-hydroxy-8-phenoxy-isoquinoline-3-carbonyl)-amino]-acetic acid] |  |  | 5.0 | 1846 | 45.6 | 725.4 | 11.35 | 214.6 | 1.38 | 40 |
| O=C(O)CNC(=O)c1nc2cc(Cl)ccc2cc1O [Compound B, [(7-Chloro-3-hydroxy-quinoline-2-carbonyl)-amino]-acetic acid] | 9.8 | 14.2 |  |  |  |  |  |  |  |  |
| Cc1nc(C(=O)NCC(=O)O)c(O)c2ccc(Oc3ccccc3)cc12 [Compound J, [(4-Hydroxy-1-methyl-7-phenoxy-isoquinoline-3-carbonyl)-amino]-acetic acid] |  | 120.0 |  |  |  |  |  |  |  |  |
| O=C(O)CNC(=O)c1ncc2cc(SC3CCCCC3)ccc2c1O [Compound V, [(7-Cyclohexylsulfanyl-4-hydroxy-isoquinoline-3-carbonyl)-amino]-acetic acid] |  |  | 13.5 | 2132.0 |  |  | 3.9 | 24.2 |  |  |
| O=C(O)CNC(=O)c1nc(Sc2ccc(Cl)cc2)c2ccccc2c1O [Compound U, {[1-(4-Chloro-phenylsulfanyl)-4-hydroxy-isoquinoline-3-carbonyl]-amino}-acetic acid] |  |  | 9.7 | 1526.0 |  |  | 1.4 | 8.9 |  |  |
| O=C(O)CNC(=O)c1nc2cc(Cl)ccc2c(-c2cccc(C(F)(F)F)c2)c1O [Compound AU, {[7-Chloro-3-hydroxy-4-(3-trifluoromethyl-phenyl)-quinoline-2-carbonyl]-amino}-acetic acid] | 7.1 | 19.2 | 5.1 | 6877 |  |  | 4.16 | 109.1 |  |  |
| O=C(O)CNC(=O)c1ncc2c(-c3ccc(F)cc3)c(-c3ccc(F)cc3)sc2c1O [Compound AJ, {[2,3-Bis-(4-fluoro-phenyl)-7-hydroxy-thieno[3,2-c]pyridine-6-carbonyl]-amino}-acetic acid] | 42.8 | 62.9 | 3.0 | 4102 | 2.53 | 271 |  |  | 1.16 | 29 |
| Cc1cccc2c(Cl)nc(C(=O)NCC(=O)O)c(O)c12 [Compound D, [(1-Chloro-4-hydroxy-5-methyl-isoquinoline-3-carbonyl)-amino]-acetic acid] | 2.7 | 205.7 |  |  |  |  |  |  |  |  |
